Measured values taken from patent US20240261274A1, “TREATMENT OF MYC-DRIVEN CANCERS WITH GSPT1 DEGRADERS” (MONTE ROSA THERAPEUTICS, INC., priority 2021, published 2024).

Legend:
[1] = system: HMEC engineered to express c-Myc tagged with EGFP; test: 3D spheroid assay, myc-HMEC (CellTiterGlo3D); format: cell-based; details: Homo sapiens, bounds (codes D and E), read-out: EC50 value
Procedure: Human mammary epithelial cells (HMEC) were engineered to express either c-Myc tagged with EGFP or EGFP alone (non myc) (analogous but distinct from Kessler J D et al, Science. 2012 Jan. 20; 335(6066):348-53. doi: 10.1126/science.1212728; Hsu T Y et al, Nature. 2015 Sep. 17; 525(7569):384-8. doi: 10.1038/nature14985). The engineered cells were seeded at 1000 (myc) or 4000 (non myc) cells/well in a 384 ultra-low attachment plate in a total volume of 40 μL HMEC cell culture media (DMEM/F12+10% HI-FBS+15 mM HEPES+0.5 ug/ml Hydrocortisone+10 ug/ml Insulin+20 ng/ml EGF). Plates were spun at 1200 rpm for 5 minutes at room temperature to ensure that cells have gathered in the middle of the well and incubated at 37° C. for 48 hrs before firing with compounds. On Day 2 (48 h post seeding) cells were imaged (brightfield and EGFP fluorescence) using the Celigo imaging cytometer prior to firing compounds. For primary screens, compounds were added at three concentrations (1.25, 10 and 30 uM) in a volume of 120 nL using the ECHO acoustic dispenser and spun at 2000 rpm for 2 minutes at room temperature before incubating at 37° C. for 5 days. […] On Day 7, prior to measuring cell viability using CellTiterGlo3D, cells were imaged (brightfield and EGFP fluorescence) on the Celigo imaging cytometer. The CellTiterGlo3D reagent is added at 30 uL/well and incubated at room temperature for 30 mins. After 30 mins of incubation, luminescence readings were recorded using the Perkin Elmer EnVision reader.

[2] = target: T1, Full length wild-type cereblon CRBN (Homo sapiens, UniProt Q96SW2); test: Fluorescence polarization (FP) assay indicating cereblon binding; details: bounds stated; read-out: IC50 value
T1 construct: Full length wild-type cereblon CRBN (80.0 nM, 10 μL) was incubated in assay buffer
T1 sequence (Q96SW2 whole entry): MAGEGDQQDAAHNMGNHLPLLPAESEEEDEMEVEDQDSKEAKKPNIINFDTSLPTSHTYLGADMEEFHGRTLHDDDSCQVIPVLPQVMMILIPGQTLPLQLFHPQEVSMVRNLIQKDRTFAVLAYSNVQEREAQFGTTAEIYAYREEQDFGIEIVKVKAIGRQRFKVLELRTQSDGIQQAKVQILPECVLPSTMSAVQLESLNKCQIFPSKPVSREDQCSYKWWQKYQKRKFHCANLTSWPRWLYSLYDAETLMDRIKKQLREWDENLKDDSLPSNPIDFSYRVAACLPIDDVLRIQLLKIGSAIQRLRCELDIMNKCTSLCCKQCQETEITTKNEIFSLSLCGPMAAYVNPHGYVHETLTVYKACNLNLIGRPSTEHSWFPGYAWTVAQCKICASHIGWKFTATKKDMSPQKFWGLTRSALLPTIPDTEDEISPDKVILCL
Procedure: Compound activity was monitored in a fluorescence polarization (FP) homogeneous assay using 1-[5-({2-[2-(2-{[2-(2,6-dioxopiperidin-3-yl)-1,3-dioxo-2,3-dihydro-1H-isoindol-4-yl]oxy}acetamido)ethoxy]ethyl}carbamoyl)pentyl]-3,3-dimethyl-2-[(1E,3E)-5-[(2E)-1,3,3-trimethyl-5-sulfo-2,3-dihydro-1H-indol-2-ylidene]penta-1,3-dien-1-yl]-3H-indol-1-ium-5-sulfonate as a fluorescent probe. Unless otherwise stated, all reagents were purchased from Sigma Aldrich. Enzymatic reactions were conducted in Perkin-Elmer Black 384 well ProxiPlate Plus (catalogue no. 6008269) in 10 μL total volume. Full length wild-type cereblon CRBN (80.0 nM, 10 μL) was incubated in assay buffer containing 20 mM HEPES (pH 8.0), […], 0.5 mM TCEP and 0.05% Tween 20 in the presence or absence of compound (300 nL). Inhibitors were stored as 10 mM DMSO stocks in an inert environment (low humidity, dark, low oxygen, room temperature) using the Storage Pod System. Compounds and DMSO were dispensed using the Echo E5XX (Labcyte Inc. USA) to give concentrations from 300 to 0.937 or 3000 to 9.3 nM in a 12 data point curve. […] Following incubation at room temperature for 30 min, the assay was initiated by dispensing the probe to a final concentration of 5 nM (2.5 nL of a 20 μM stock) using the Echo E5XX. FP was measured after a period of 12 hours using a Pherastar plate reader (BMG Labtech, Germany) exciting at 590 nm and measuring the amount of parallel and perpendicular light at 675 nm. The FP signal was subsequently normalized to the no-compound control (i.e., DMSO). Analysis and IC50 values were derived using Dotmatics (Dotmatics UK) software.

[3] = target: T2, IKZF1 (Homo sapiens, UniProt Q13422+Q96SW2); test: Selectivity western blot assay in MM1 S cells, IKZF1; format: cell-based; parameters: key: A represents no degradation observed at 30 μM; B represents trace degradation at 30 μM (below 20%); C represents weak degradation at 30 μM (below 50%); D represents degradation at 30 μM (>90%); E represents degradation at 3 μM (>90%); F represents degradation at 0.3 μM (>90%); details: MM1 S cells, 0.3, 3 and 30 μM, 6 hours
T2 construct: endogenous in cells; host or cells: MM1 S (ATCC CRL-2974)
T2 sequence (Q13422 whole entry): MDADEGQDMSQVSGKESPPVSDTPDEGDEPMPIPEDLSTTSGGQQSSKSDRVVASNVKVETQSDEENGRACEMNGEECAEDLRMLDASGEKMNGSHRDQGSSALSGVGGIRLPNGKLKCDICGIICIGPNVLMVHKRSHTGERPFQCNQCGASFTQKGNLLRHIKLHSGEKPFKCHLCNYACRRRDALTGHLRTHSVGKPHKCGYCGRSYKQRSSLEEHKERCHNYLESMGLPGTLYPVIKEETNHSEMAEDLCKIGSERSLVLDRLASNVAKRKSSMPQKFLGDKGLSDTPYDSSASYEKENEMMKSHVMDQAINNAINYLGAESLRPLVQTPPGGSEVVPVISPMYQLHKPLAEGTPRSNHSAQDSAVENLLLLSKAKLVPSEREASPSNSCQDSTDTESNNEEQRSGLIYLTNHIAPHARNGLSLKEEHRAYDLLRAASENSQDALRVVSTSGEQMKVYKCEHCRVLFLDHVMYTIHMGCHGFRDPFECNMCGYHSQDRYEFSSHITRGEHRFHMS
T2 sequence (Q96SW2 whole entry): as the sequence (Q96SW2 whole entry) above
T2 sequence (Q16531 whole entry partner): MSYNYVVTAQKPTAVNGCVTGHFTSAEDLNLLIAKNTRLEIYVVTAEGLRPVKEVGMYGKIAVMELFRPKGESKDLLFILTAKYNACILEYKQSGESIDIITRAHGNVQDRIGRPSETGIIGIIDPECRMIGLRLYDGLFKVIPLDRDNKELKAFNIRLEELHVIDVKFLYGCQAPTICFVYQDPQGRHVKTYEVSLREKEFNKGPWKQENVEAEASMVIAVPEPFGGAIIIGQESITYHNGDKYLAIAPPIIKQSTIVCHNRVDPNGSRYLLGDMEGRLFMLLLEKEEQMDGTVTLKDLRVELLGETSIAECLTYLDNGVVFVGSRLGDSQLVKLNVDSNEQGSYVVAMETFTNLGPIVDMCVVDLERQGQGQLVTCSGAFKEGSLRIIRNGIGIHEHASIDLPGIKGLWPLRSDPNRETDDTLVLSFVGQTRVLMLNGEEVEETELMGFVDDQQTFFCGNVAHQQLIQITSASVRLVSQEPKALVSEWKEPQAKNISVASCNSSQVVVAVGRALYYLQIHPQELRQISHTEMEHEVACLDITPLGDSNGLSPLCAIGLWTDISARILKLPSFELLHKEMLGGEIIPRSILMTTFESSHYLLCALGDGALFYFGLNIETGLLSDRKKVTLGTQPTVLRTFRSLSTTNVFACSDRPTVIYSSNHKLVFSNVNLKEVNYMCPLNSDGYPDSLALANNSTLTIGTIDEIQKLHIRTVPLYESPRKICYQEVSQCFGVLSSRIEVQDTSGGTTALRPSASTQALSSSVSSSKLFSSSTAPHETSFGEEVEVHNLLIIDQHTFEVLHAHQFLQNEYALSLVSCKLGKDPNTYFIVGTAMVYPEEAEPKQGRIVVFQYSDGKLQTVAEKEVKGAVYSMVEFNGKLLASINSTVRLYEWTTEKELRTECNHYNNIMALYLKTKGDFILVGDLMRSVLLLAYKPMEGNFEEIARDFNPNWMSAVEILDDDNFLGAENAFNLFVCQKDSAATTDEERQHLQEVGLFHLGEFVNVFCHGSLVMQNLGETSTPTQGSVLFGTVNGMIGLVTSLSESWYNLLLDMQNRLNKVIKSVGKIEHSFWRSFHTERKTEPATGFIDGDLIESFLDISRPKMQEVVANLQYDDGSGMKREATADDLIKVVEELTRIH
Procedure: (§1) MM1 S cells were purchased from ATCC (cat. Number CRL-2974), sub-cultured in 90% RPMI 1640 with 10% FBS, supplemented with 1×P/S and incubated at 37° C., 5% CO2. Compounds were stored as 10 mM DMSO stock. For the assay, MM1 S cells (3 million cells/well) were plated in 6-well plates and incubated over night. Cells were treated with respective compounds using a serial dilution: 0.3 μM, 3 μM and 30 μM as well as a vehicle only (DMSO) control for 6 hours. Media with suspension cells was subsequently transferred to 15 mL conical tubes, wells rinsed twice with ice-cold PBS and merged with cell suspension in respective 15 mL conical tube. Cells were spinned down, supernatant aspirated, pellets resuspended in ice-cold PBS and transferred to microtubes. Cells were spinned down, supernatant aspirated and pellets resuspended in 120 μL RIPA lysis buffer supplemented with protease and phosphatase inhibitors. Cell lysates were incubated on ice for 20 minutes followed by centrifugation at >20,000×g for 5 min. Supernatants were transferred to fresh microtubes and stored at −80° C. Total protein concentration was determined using a BCA assay with a BSA standard curve and concentration of all samples was adjusted to 1 mg/mL. 25 μL 4×LDS sample buffer supplemented with 100 mM DTT was added to 75 μL sample. Samples were centrifuged (8,000×g, 1 min) and incubated at 95° C. for 5 min followed by another centrifugation step (8,000×g, 1 min). 20 μL of each sample was loaded on a 4-12% gel alongside a protein molecular weight marker. Gels were run in the presence of MOPS buffer at 80 Volts for 30 min, followed by 120 Volts for 1.5 h and proteins subsequently transferred onto nitrocellulose membranes at 20 Volts for 7 min using an iBlot2 Gel Transfer Device. Membranes were then cut horizontally into two pieces, covering 80-50 kDa and 50-25 kDa. Blocking the membranes was performed by gently shaking in 5% (w/v) skim milk in TSB-T for 1 hr at room temperature. All primary antibodies were used at a 1/1000 in 5% (w/v) BSA dissolved in TBST and incubated with membranes over night at 4° C. After three washes with 1×TBST for 5 min, HRP-coupled secondary antibodies diluted in 5% (w/v) BSA/TBST (Goat Anti-Rb IgG, dil. 1/10,000; Goat Anti-Mouse IgG, dil. 1/5000) were added for 1 hr at room temperature. After three washes with 1×TBST (5 minutes each), membranes were incubated with ECL reagent for 1 min at room temperature. Chemiluminescence signals were then detected using a LAS-4000 system with default settings and signals quantified using Image Studio Lite software (version 5.2). Membrane parts previously incubated with antibody against CK1 alpha were stripped off antibodies by incubating with stripping buffer for 30 minutes followed by three washed with TBST (5 min each), blocking with 5% (w/v) skim milk for 1 hr, and incubation with primary antibody against uGAPDH overnight at 4° C. Subsequent washes, incubation with secondary antibody and signal acquisition were performed as described above.

[4] = target: T3, IKZF3 (Homo sapiens, UniProt Q96SW2+Q9UKT9); test: Selectivity western blot assay in MM1 S cells, IKZF3; format: cell-based; parameters: key: A represents no degradation observed at 30 μM; B represents trace degradation at 30 μM (below 20%); C represents weak degradation at 30 μM (below 50%); D represents degradation at 30 μM (>90%); E represents degradation at 3 μM (>90%); F represents degradation at 0.3 μM (>90%); details: MM1 S cells, 0.3, 3 and 30 μM, 6 hours
T3 construct: endogenous in cells; host or cells: MM1 S (ATCC CRL-2974)
T3 sequence (Q9UKT9 whole entry): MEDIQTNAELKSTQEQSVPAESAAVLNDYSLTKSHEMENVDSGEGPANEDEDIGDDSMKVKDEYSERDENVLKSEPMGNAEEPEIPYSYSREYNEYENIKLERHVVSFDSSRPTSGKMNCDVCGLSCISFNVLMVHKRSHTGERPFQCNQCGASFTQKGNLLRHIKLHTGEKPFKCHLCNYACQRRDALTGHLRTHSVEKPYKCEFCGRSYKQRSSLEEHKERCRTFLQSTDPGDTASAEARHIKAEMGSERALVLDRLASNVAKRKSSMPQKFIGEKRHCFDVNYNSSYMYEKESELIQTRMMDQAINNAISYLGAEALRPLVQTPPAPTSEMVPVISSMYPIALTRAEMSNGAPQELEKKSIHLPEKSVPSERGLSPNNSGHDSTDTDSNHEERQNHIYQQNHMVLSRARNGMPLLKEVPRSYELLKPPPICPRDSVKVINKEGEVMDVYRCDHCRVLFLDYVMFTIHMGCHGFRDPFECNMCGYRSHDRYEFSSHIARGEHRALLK
T3 sequence (Q96SW2 whole entry): as the sequence (Q96SW2 whole entry) above
T3 sequence (Q16531 whole entry partner): as the sequence (Q16531 whole entry partner) above
Procedure: as §1

[5] = target: T4, GSPT1 (Homo sapiens, UniProt P15170+Q96SW2); test: GSPT1 degradation immunofluorescence assay in CAL-51 cells; format: cell-based; parameters: endogenous in cells; host or cells: CAL-51 (DSMZ ACC302); details: 6 hours, Table 5A, read-out: Activity for GSPT1 degradation, Code (DC50)
T4 sequence (P15170 whole entry): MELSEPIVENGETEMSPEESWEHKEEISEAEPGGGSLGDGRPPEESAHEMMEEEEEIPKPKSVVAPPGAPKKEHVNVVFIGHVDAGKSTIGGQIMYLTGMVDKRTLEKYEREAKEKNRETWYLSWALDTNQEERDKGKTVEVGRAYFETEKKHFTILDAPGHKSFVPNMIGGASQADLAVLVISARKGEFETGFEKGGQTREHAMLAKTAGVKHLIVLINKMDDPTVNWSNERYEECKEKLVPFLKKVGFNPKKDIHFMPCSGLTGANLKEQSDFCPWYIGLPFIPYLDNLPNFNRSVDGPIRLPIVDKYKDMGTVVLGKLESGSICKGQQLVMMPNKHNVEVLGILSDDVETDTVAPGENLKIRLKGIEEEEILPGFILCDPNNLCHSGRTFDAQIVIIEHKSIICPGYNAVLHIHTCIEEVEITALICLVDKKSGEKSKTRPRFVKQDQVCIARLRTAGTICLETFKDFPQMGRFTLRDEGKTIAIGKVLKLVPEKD
T4 sequence (Q96SW2 whole entry): as the sequence (Q96SW2 whole entry) above
T4 sequence (Q16531 whole entry partner): as the sequence (Q16531 whole entry partner) above
Procedure: CAL-51 cells were purchased from DSMZ (cat. Number ACC302), sub-cultured in 90% Dulbecco's MEM (4.5 g/L glucose, Gibco 11965)+10% heat inactivated FBS (BioConcept, 2-01F1361) and incubated at 37° C., 5% CO2. For the assay, imaging microtiterplate Cell Carrier 96 Ultra (Perkin Elmer 6055302) were pre-coated with Fibronectin (Sigma F085, 30 μl at 0.2 μg/ml) in PBS (100 μl, Gibco 14190) for 45 min at room temperature, rinsed with PBS and CAL-51 cells (30K cells/well) were plated and let to adhere overnight. Cells were treated with compounds typically using a serial dilution ranging from 30 μM to 0.1 nM for 6 hours. Compounds were stored at 10 mM DMSO stocks. Vehicle (DMSO), positive (CC-885, 10 μM) and rescue controls (positive control plus 0.2 μM bortezomib) were also included at this stage. Cells were subsequently rinsed with PBS and fixed in 10% Formalin solution (50 μl, Sigma HT5011)) for 20 mins at room temperature. Following three consecutive PBS washes (100 μl), cells were permeabilized in 0.1% Triton X-100 in PBS (Sigma 93443, 50 μl) for 15 mins at room temperature. Following three further PBS washes, 50 μl blocking buffer (1% BSA, Sigma A4503, in PBS) was added for 45 min for signal-to-noise reduction. Primary antibody (human GSPT1, Sigma HPA052488) was diluted in blocking buffer (dil. 1/300, 35 μl/well) and incubated with the cells overnight at 4° C. After three PBS washes, Alexa-fluor 488 coupled secondary antibodies (Invitrogen, A32731, dil. 1/1000), Alexa-fluor 647-Phalloidin (Invitrogen, A22287, dil. 1/200) and DAPI (Thermo, #62248, dil. 1/1000) were diluted in blocking buffer and incubated with the samples for 2 hours at room temperature. After three final PBS washes, samples were conserved in 100 μl PBS in the dark, until measurement. Image acquisition was performed on the Operetta High-Content Imager (Perkin-Elmer). Fluorescence intensity of Alexa-Fluor 488 (GSPT1), Alexa-Fluor 647 (Actin) and DAPI (Nucleus) were measured. For the determination of GSPT1 DC50 values, a custom algorithm implemented in the PerkinElmer image analysis software Harmony-Acapella® was developed. After user-defined setting of adjustment parameters, the analysis was run identically without human intervention for all image fields. DAPI staining of the nuclei was used to determine the location of cells using standard nuclei detection modules. Segmentation artifacts were removed by threshold-based filters for area, roundness and intensity. The outline of the cells was determined analogously from the sum of the normalized, smoothed DAPI and Actin channel, starting from each nucleus. The Alexa-Fluor 488 (GSPT1) signal intensity in each cell was finally measured, in order to obtain a Mean intensity per cell. GSPT1 degradation (DC50) was calculated after normalization to controls and data import in CDD vault Database, using non-linear regression.

[6] = target: T5, CK1alpha (Homo sapiens, UniProt P48729+Q96SW2); test: Selectivity western blot assay in MM1 S cells, CK1alpha; format: cell-based; parameters: key: A represents no degradation observed at 30 μM; B represents trace degradation at 30 μM (below 20%); C represents weak degradation at 30 μM (below 50%); D represents degradation at 30 μM (>90%); E represents degradation at 3 μM (>90%); F represents degradation at 0.3 μM (>90%); details: MM1 S cells, 0.3, 3 and 30 μM, 6 hours
T5 construct: endogenous in cells; host or cells: MM1 S (ATCC CRL-2974)
T5 sequence (P48729 whole entry): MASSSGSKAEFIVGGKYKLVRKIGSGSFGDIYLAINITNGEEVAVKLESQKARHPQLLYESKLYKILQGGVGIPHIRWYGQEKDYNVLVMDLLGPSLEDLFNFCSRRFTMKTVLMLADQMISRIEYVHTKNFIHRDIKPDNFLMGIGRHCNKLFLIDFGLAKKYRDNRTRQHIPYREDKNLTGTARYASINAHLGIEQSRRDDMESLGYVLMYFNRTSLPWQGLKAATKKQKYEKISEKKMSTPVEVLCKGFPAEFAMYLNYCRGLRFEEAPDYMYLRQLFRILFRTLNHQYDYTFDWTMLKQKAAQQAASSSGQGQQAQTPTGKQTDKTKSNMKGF
T5 sequence (Q96SW2 whole entry): as the sequence (Q96SW2 whole entry) above
T5 sequence (Q16531 whole entry partner): as the sequence (Q16531 whole entry partner) above
Procedure: as §1

[7] = target: T4, GSPT1; test: Selectivity western blot assay in MM1 S cells, GSPT1; format: cell-based; parameters: endogenous in cells; host or cells: MM1 S (ATCC CRL-2974); details: MM1 S cells, 0.3, 3 and 30 μM, 6 hours
Procedure: as §1

[8] = target: T6, ZFP91 (Homo sapiens, UniProt Q96JP5+Q96SW2); test: Selectivity western blot assay in MM1 S cells, ZFP91; format: cell-based; parameters: key: A represents no degradation observed at 30 μM; B represents trace degradation at 30 μM (below 20%); C represents weak degradation at 30 μM (below 50%); D represents degradation at 30 μM (>90%); E represents degradation at 3 μM (>90%); F represents degradation at 0.3 μM (>90%); details: MM1 S cells, 0.3, 3 and 30 μM, 6 hours
T6 construct: endogenous in cells; host or cells: MM1 S (ATCC CRL-2974)
T6 sequence (Q96JP5 whole entry): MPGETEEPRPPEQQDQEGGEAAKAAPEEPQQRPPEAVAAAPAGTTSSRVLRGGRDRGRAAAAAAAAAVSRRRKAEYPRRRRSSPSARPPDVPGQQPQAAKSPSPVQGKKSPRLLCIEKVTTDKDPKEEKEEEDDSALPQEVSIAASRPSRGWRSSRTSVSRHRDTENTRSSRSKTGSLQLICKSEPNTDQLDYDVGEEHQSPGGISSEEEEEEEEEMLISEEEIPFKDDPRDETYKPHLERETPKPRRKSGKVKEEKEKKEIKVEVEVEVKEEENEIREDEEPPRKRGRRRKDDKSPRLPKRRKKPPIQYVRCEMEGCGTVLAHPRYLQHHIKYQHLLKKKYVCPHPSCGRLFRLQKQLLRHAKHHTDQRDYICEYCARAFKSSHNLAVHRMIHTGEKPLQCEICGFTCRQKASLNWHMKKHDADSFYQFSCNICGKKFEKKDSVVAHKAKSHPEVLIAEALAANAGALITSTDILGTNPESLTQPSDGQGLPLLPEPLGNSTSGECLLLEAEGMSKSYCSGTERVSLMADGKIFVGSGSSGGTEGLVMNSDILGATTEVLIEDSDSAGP
T6 sequence (Q96SW2 whole entry): as the sequence (Q96SW2 whole entry) above
T6 sequence (Q16531 whole entry partner): as the sequence (Q16531 whole entry partner) above
Procedure: as §1

Row | IC50 [2] [nM] | IKZF1 degradation [3] | IKZF3 degradation [4] | DC50 [5] [nM] | CK1alpha degradation [6] | Compound | EC50 [1] [nM] | GSPT1 degradation [7] | ZFP91 degradation [8]
1 | – | A | A | – | A | Cc1c(Cl)cc(NC(=O)NCc2ccc3c(c2)C(=O)N(C2CCC(=O)NC2=O)C3)cc1CN(C)C (stereo not shown) [Compound 75] | – | E (E represents degradation at 3 μM (>90%)) | A
2 | – | A | A | – | A | Cc1ccc(NC(=O)NCc2ccc3c(c2)C(=O)N(C2CCC(=O)NC2=O)C3)c(Cl)c1Cl (stereo not shown) [Compound 87] | – | E (E represents degradation at 3 μM (>90%)) | A

Further lines, the molecule ahead of its results:

Row | Compound | IC50 [2] [nM] | IKZF1 degradation [3] | IKZF3 degradation [4] | DC50 [5] [nM] | CK1alpha degradation [6] | EC50 [1] [nM] | GSPT1 degradation [7] | ZFP91 degradation [8]
3 | O=C1CCC(N2Cc3ccc(CNC(=O)Nc4cccc(C(F)(F)F)c4)cc3C2=O)C(=O)N1 (stereo not shown) [Compound 47] | < 600 | – | – | – | – | ≤ 2000 | – | –
4 | Cc1ccc(NC(=O)NCc2ccc3c(c2)C(=O)N(C2CCC(=O)NC2=O)C3)cc1C (stereo not shown) [Compound 68] | – | – | – | – | – | ≤ 2000 | – | –
5 | O=C1CCC(N2Cc3ccc(COC(=O)Nc4cccc(OC(F)(F)F)c4)cc3C2=O)C(=O)N1 (stereo not shown) [Compound 203] | – | A | A | ≤ 30 | B (B represents trace degradation at 30 μM (below 20%)) | – | F (F represents degradation at 0.3 μM (>90%)) | B (B represents trace degradation at 30 μM (below 20%))
6 | CCc1cccc(NC(=O)NCc2ccc3c(c2)C(=O)N(C2CCC(=O)NC2=O)C3)c1 (stereo not shown) [Compound 31] | – | – | – | – | – | ≤ 2000 | – | –
7 | O=C1CCC(N2Cc3ccc(CNC(=O)Nc4cccc(CN5CCOCC5)c4)cc3C2=O)C(=O)N1 (stereo not shown) [Compound 105] | – | B (B represents trace degradation at 30 μM (below 20%)) | A | – | A | – | E (E represents degradation at 3 μM (>90%)) | B (B represents trace degradation at 30 μM (below 20%))
